Values of other authors in patent US20230055121A1, “AQUEOUS SUSPENSION COMPOSITION CONTAINING SIROLIMUS OR SALT THEREOF” (SANTEN PHARMACEUTICAL CO., LTD., priority 2019, published 2023).

## Sirolimus
  Solubility in water: almost insoluble in water
